Holding throughout (type): physicochemical
The nature of series [1]: Aqueous solubility of the compound at pH 1.
Series [2] is described as follows: Aqueous solubility of the compound at pH 6.5.
Series [3] can be described thus: Aqueous solubility of the compound at pH 7.4.

Converted amounts (≈) assume the structure as drawn.

On to `O=C(N[C@H]1CC[C@H](C(O)CC2c3ccccc3-c3cncn32)CC1)c1ccccc1` (stereo partly drawn), for which the solubility in series [1] was found to be 363 µM (≈ 146 µg/mL); in series [2], 22 µM (≈ 8.83 µg/mL); in series [3], 25 µM (≈ 10 µg/mL).
